The values that follow are results of earlier work, collected in patent publication US12247053B2 (priority 2018, dated 2025).

For the series, the system named is 2009 swine flu influenza A(H1N1).
Consider `NC12CC3CC(CC(C3)C1)C2` [amantadine], for which the “susceptibility of the virus” value is “resistant”.
For `CCOC(=O)C1=C[C@@H](OC(CC)CC)[C@H](NC(C)=O)[C@@H](N)C1` [oseltamivir], the “susceptibility of the virus” value is listed as “susceptible”.
For the molecule `CC(N)C12CC3CC(CC(C3)C1)C2` (stereo not shown) [rimantadine], the “susceptibility of the virus” value was “resistant”.
Turning to `CC(=O)N[C@H]1[C@H]([C@H](O)[C@H](O)CO)OC(C(=O)O)=C[C@@H]1N=C(N)N` [zanamivir], the “susceptibility of the virus” value is “susceptible”.
